# Source: ChEMBL document CHEMBL1134247, “Glycosidase inhibition by cyclic sulfonium compounds” (Bioorg Med Chem Lett, 2001)
# Columns and labels:
# [1] = Inhibitory concentration of compound against Alpha-glucosidase from rice
# [2] = Inhibitory concentration of compound against Alpha-glucosidase from recombinant S. cerevisiae; not active at less than 50% inhibition; set-up: species or system Saccharomyces cerevisiae
# [3] = Inhibitory concentration of compound against Alpha-glucosidase from Baker's yeast; not active at less than 50% inhibition; set-up: species or system Saccharomyces cerevisiae
# [4] = (§1) Inhibitory concentration of compound against Alpha-mannosidase of Almond; set-up: species or system Prunus dulcis
# [5] = target: Beta-galactosidase (Escherichia coli, UniProt Q8VNN2); test: Inhibitory effect towards Beta-galactosidase at a concentration of 2 mM from E. coli; no inhibitory effect
# [6] = Inhibitory concentration of compound against Alpha-glucosidase from B. stearothermophilus; not active at less than 50% inhibition; set-up: species or system Geobacillus stearothermophilus
# [7] = test system: alpha-galactosidase (Coffea arabica); test: Inhibitory effect towards Alpha-galactosidase at a concentration of 2 mM from coffee beans; no inhibitory effect
# [8] = Inhibitory concentration of compound (10:1 ratio of 10a/10b) against Alpha-glucosidase from Bacillus stearothermophilus; set-up: species or system Geobacillus stearothermophilus
# [9] = Inhibitory concentration of compound (10:1 ratio of 10a/10b) against Alpha-glucosidase from recombinant Saccharomyces cerevisiae
# [10] = Inhibitory concentration of compound (10:1 ratio of 10a/10b) against Alpha-glucosidase from rice
# [11] = Inhibitory concentration of compound (10:1 ratio of 10a/10b) against Alpha-mannosidase of Almond; set-up: species or system Prunus dulcis
# [12] = Inhibitory concentration of compound (4:6 ratio of 10a/10b) against Alpha-glucosidase from Baker's yeast; set-up: species or system Saccharomyces cerevisiae
# [13] = test system: beta-glucosidase (Prunus dulcis); test: Inhibitory concentration of compound (10:1 ratio of 10a/10b) against Beta-glucosidase from Almond; not active
# [14] = Inhibitory concentration of compound (4:6 ratio of 10a/10b) against Alpha-glucosidase from recombinant Saccharomyces cerevisiae
# [15] = Inhibitory concentration of compound (10:1 ratio of 10a/10b) against Alpha-glucosidase from Baker's yeast; set-up: species or system Saccharomyces cerevisiae
# [16] = Inhibitory concentration of compound (4:6 ratio of 10a/10b) against Alpha-mannosidase of Almond; set-up: species or system Prunus dulcis
# [17] = Inhibitory concentration of compound (4:6 ratio of 10a/10b) against Alpha-glucosidase from Bacillus stearothermophilus; set-up: species or system Geobacillus stearothermophilus
# [18] = test system: beta-glucosidase (Prunus dulcis); test: Inhibitory concentration of compound (4:6 ratio of 10a/10b) against Beta-Glucosidase from Almond; not active
# [19] = Inhibitory concentration of compound (4:6 ratio of 10a/10b) against Alpha-glucosidase from rice
# [20] = Inhibitory concentration of compound against Alpha-glucosidase in rice
# [21] = Inhibitory concentration of compound against Alpha-glucosidase in recombinant S. cerevisiae; not active; set-up: species or system Saccharomyces cerevisiae
# [22] = Inhibitory concentration of compound against Alpha-glucosidase in Baker's yeast; not active at less than 50% inhibition; set-up: species or system Saccharomyces cerevisiae
# [23] = test system: Prunus dulcis; test: as §1
# [24] = Inhibitory concentration of compound against Alpha-glucosidase in Bacillus stearothermophilus; set-up: species or system Geobacillus stearothermophilus
# [25] = test system: beta-glucosidase (Prunus dulcis); test: Inhibitory concentration of compound against Beta-glucosidase from Almond;not active
# [26] = Inhibitory concentration of compound against Alpha-glucosidase from rice; not active at less than 50% inhibition
# [27] = Inhibitory concentration of compound against Alpha-mannosidase of Almond; not active; set-up: species or system Prunus dulcis
# Sequence of Beta-galactosidase (Q8VNN2 whole entry): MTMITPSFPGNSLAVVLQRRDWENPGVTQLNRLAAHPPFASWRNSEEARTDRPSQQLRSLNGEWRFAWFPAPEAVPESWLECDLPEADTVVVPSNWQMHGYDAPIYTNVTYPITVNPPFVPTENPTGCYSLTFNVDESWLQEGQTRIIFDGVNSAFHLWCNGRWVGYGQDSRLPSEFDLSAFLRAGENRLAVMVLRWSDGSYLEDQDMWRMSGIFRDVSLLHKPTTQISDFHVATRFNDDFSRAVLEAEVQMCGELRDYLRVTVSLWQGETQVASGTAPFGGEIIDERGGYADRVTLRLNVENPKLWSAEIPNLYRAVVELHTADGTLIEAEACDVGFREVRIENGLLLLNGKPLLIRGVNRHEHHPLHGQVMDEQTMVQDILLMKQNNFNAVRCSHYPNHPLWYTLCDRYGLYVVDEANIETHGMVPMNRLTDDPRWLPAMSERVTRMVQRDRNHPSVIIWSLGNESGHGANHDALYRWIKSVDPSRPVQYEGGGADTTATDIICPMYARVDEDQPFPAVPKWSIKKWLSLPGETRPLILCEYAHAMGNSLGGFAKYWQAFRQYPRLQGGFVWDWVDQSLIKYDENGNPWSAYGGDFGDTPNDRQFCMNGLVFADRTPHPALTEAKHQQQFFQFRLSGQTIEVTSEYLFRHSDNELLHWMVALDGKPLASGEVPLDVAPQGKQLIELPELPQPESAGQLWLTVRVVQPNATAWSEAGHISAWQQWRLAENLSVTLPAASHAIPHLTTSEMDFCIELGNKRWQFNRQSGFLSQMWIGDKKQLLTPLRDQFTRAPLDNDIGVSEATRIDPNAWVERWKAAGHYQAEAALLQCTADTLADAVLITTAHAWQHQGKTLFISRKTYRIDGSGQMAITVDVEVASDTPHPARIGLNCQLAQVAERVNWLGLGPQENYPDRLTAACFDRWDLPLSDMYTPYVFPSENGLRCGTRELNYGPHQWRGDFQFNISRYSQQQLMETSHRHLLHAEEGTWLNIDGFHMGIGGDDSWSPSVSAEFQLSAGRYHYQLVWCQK
smiles,measurement,setting,value
O=S(=O)([O-])O[C@H](CO)[C@@H](O)C[S@+]1C[C@@H](O)[C@H](O)[C@@H]1CO,IC50,[1],380 µM
same,IC50,[2],Not Active
same,IC50,[3],Not Active
same,IC50,[4],3600 µM
same,IC50,[5],No effect
same,IC50,[6],Not Active
O=S(=O)([O-])O[C@H](CO)[C@@H](O)C[S+]1CCCC1,IC50,[1],1000 µM
same,IC50,[7],No effect
same,IC50,[3],Not Active
same,IC50,[5],No effect
C[S+]1C[C@@H](O)[C@H](O)[C@H]1CO.[I-] (stereo partly specified),IC50,[8],250 µM
same,IC50,[9],490 µM
same,IC50,[10],410 µM
same,IC50,[11],2100 µM
same,IC50,[12],2200 µM
same,IC50,[13],Not Active
same,IC50,[14],2100 µM
same,IC50,[15],360 µM
same,IC50,[16],1200 µM
same,IC50,[17],1400 µM
same,IC50,[18],Not Active
same,IC50,[19],2000 µM
O=S(=O)([O-])O[C@@H](CO)[C@H](O)C[S@+]1C[C@@H](O)[C@H](O)[C@@H]1CO,IC50,[20],110 µM
same,IC50,[21],Not Active
same,IC50,[22],Not Active
same,IC40,[23],2100 µM
same,IC50,[24],2500 µM
O=S(=O)([O-])O[C@@H](CO)[C@H](O)C[S+]1CCCC1,IC50,[25],Not Active
same,IC50,[26],Not Active
same,IC50,[3],Not Active
same,IC50,[27],Not Active
